Experimental data reported in US9234004B2, “Antimicrobial peptides” (Agency for Science, Technology and Research, priority 2010, dated 2016).
In brackets after ≈: the same amount, converted by molar mass. Like-named read-outs stand apart in the source and are kept apart here. Ends that are not written are not given here. Peptide text beside a SMILES is read from it.

Columns and labels:
Assay type in all cases: cell-based
rat red blood cells = experiment: Hemolytic activity test
Protocol: Peptides were obtained from GL Biochem (Shanghai, China), and their fidelity was further confirmed via matrix-assisted laser desorption/ionization time-of-flight mass spectroscopy (MALDI-TOF MS, Model Autoflex II, Bruker Daltonics Inc., U.S.A.), using α-cyano-4-hydroxycinnamic acid as matrix. The purity of the peptides was also tested to be more than 95% with analytical reverse phase (RP)-HPLC. α-Cyano-4-hydroxycinnamic acid (HCCA) was purchased from Sigma-Aldrich (Singapore) and used in saturated acetonitrile/water (1:1 volume ratio) after being re-crystallized. Sodium dodecyl sulphate (SDS) micelle solution (10% w/v in DI water) was obtained from 1st Base (Malaysia) and used upon dilution to the desirable concentration range. Tryptic soy broth (TSB) powder and yeast mould broth (YMB) powder were purchased from BD Diagnostics (Singapore) and used to prepare the microbial broths according to the manufacturer's instructions. Phosphate-buffered saline solution at 10× concentration was purchased from 1st Base (Malaysia) and used after dilution to the desired concentration. Ethanol (analytical grade, 99%) and glutaraldehyde (synthetic grade, 50% in H2O) were purchased from Sigma Aldrich (Singapore) and used as received. […] Red blood cells used in the experiments were obtained from rats maintained at the Animal Handling Units of the Biomedical Research Centers (Singapore). Human peripheral blood mononuclear cells (PBMCs) were extracted from healthy blood donors and maintained with RPMI medium supplemented with 10% lowendotoxin fetal bovine serum (FBS) and 1% penicillin-streptomycin. Granulocyte macrophage-colony stimulating factor (GM-CSF) and lipopolysaccharide were purchased from Sigma-Aldrich and used as received.
Fresh red blood cells were washed with PBS for three times, and were subjected to 25 times dilution with PBS to reach a concentration of approximately 4% (in volume) of the blood cells. The red blood cell suspension (100 μL) was placed into a 96-well cell culture plate and mixed with 100 μL of the antimicrobial peptide solution in PBS at concentrations of 0.98, 1.95, 3.90, 7.81, 15.63, 31.25, 62.5, 125, 250, 500 mg/L. The mixture was then incubated at 37° C. for 1 hour to allow for the hemolysis process to take place. At the end of incubation time, the non-hemolysed red blood cells were separated by centrifugation at 13000 g for 5 minutes. Aliquots (100 μL) of the supernatant were transferred into a new 96-well plate, and the hemoglobin release was measured by checking the UV-absorbance of the samples at 576 nm using a microplate reader (TECAN, Switzerland). Two controls were provided in this assay: an untreated red blood cell suspension in PBS was used as the negative control, and a solution containing red blood cells lysed with 0.1% Triton-X was used as the positive control. Each assay was performed in 6 replicates, and the data were expressed as means and standard deviations of the 6 replicates. Percentage of hemolysis was calculated using the following formula: Hemolysis (%)=[(O.D.576 nm of the treated sample−O.D.576 nm of the negative control)/(O.D.576 nm of positive control−O.D.576 nm of negative control)]×100%. Field Emission-Scanning Electron Microscopy (FE-SEM) Analysis of Bacterial Cells

E. coli = test system: E. coli
Protocol: (§1) Microbial cells were firstly re-constituted from its lyophilized form according to the manufacturer's protocol. Bacterial cells were cultured in tryptic soy broth (TSB) at 37° C., and yeast cells were cultured in yeast mould broth (YMB) at room temperature under constant shaking at 100 rpm. Broth containing an antimicrobial peptide was prepared at various concentrations (0.98, 1.95, 3.90, 7.81, 15.63, 31.25, 62.5, 125, 250, 500 mg/L) and transferred into a 96-well tissue culture plate (100 μL/well). Microorganism was first inoculated overnight to enter its log growth-phase. An equal volume of microorganism solution (100 μL) was added into each well of the 96-well plate containing the antimicrobial peptide. Prior to this mixing, the concentration of microorganism solution was adjusted to give an initial optical density (O.D.) reading of 0.1-0.2 at 600 nm wavelength. The growth of the microorganism was observed upon introducing the antimicrobial peptide by measuring the O.D. readings at 2 hour intervals for up to 8 hours. […] Broth containing microbial cells was used as the negative control, and each test was carried out in 6 replicates. The standard deviations of the 6 readings were reported as the error bars.

C. albicans = test system: C. albicans
Protocol: as §1

B. subtilis = test system: B. subtilis
Protocol: as §1

P. aeruginosa = test system: P. aeruginosa
Protocol: as §1

[1] = rat red blood cells, 37° C., 1 hour
[2] = 8 hours incubation, tryptic soy broth, 37° C.
[3] = 8 hours incubation, yeast mould broth, room temperature

| Compound | HC50 (50% hemolytic concentration) (rat red blood cells; [1]) | MIC E. coli (E. coli; [2]) | MIC C. albicans (C. albicans; [3]) | MIC B. subtilis (B. subtilis; [2]) | MIC P. aeruginosa (P. aeruginosa; 8 hours incubation) | HC50 (50% hemolytic concentration) (rat red blood cells; red cells of rat, 1 h) | MIC E. coli (E. coli; 8 h) | MIC C. albicans (C. albicans; 8 h) | MIC B. subtilis (B. subtilis; 8 h) | MIC P. aeruginosa (P. aeruginosa; 8 h) | hemolysis at the MIC against B. subtilis (rat red blood cells) | hemolysis at the MIC level for C. albicans (rat red blood cells) |
| --- | --- | --- | --- | --- | --- | --- | --- | --- | --- | --- | --- | --- |
| CC(C)C[C@H](NC(=O)[C@H](CC(C)C)NC(=O)[C@H](CCCCN)NC(=O)[C@H](CCCCN)NC(=O)[C@H](CC(C)C)NC(=O)[C@H](CC(C)C)NC(=O)[C@H](CCCCN)NC(=O)[C@H](CCCCN)NC(=O)[C@H](CC(C)C)NC(=O)[C@H](CC(C)C)NC(=O)[C@@H](N)CS)C(=O)N[C@@H](CCCCN)C(=O)N[C@@H](CCCCN)C(=O)N[C@@H](CS)C(N)=O [CLLKKLLKKLLKKC-NH2] (H-CLLKKLLKKLLKKC-NH2) | ~82 mg/L | 125 mg/L (≈ 74.8 µM) | 125 mg/L (≈ 74.8 µM) | 31 mg/L (≈ 18.5 µM) | 125 mg/L (≈ 74.8 µM) | – | – | – | – | – | – | – |
| FFRRFFRR-NH2 [(FFRR)2, FFRRFFRR-NH2] | – | – | – | – | – | >500 mg/L | >500 mg/L | >500 mg/L | 125 mg/L | – | – | – |
| LLKKLLKKC-NH2 [LLKKLLKKC-NH2] | – | – | – | – | – | >2500 mg/L | >500 mg/L | 250 mg/L | 125 mg/L | 63 mg/L | – | – |
| LLKKLLKKLLKKC-NH2 [LLKKLLKKLLKKC-NH2] | ~402 mg/L | 150 mg/L | 63 mg/L | 16 mg/L | 16 mg/L | – | – | – | – | – | – | – |
| MLLKKLLKKM-NH2 [MLLKKLLKKM-NH2] | – | – | – | – | – | >2500 mg/L | >500 mg/L | 500 mg/L | 125 mg/L | 500 mg/L | – | – |
| CC(C)C[C@H](NC(=O)[C@H](CC(C)C)NC(=O)[C@H](CCCCN)NC(=O)[C@H](CCCCN)NC(=O)[C@H](CC(C)C)NC(=O)[C@H](CC(C)C)NC(=O)[C@@H](N)CS)C(=O)N[C@@H](CCCCN)C(=O)N[C@@H](CCCCN)C(=O)N[C@@H](CS)C(N)=O [CLLKKLLKKC-NH2] (H-CLLKKLLKKC-NH2) | – | – | – | – | – | >2500 mg/L | 225 mg/L (≈ 189 µM) | 250 mg/L (≈ 210 µM) | 125 mg/L (≈ 105 µM) | 125 mg/L (≈ 105 µM) | – | – |
| FFRRFFRRFFRRFFRR-NH2 [(FFRR)4, FFRRFFRRFFRRFFRR-NH2] | – | – | – | – | – | ~26 mg/L | >50 mg/L | >50 mg/L | 20 mg/L | – | around 50% | – |
| MLLKKLLKKLLKKM-NH2 [MLLKKLLKKLLKKM-NH2] | ~158 mg/L | 250 mg/L | 125 mg/L | 31 mg/L | 31 mg/L | – | – | – | – | – | – | – |
| LLKKLLKKLLKK-NH2 [(LLKK)3, LLKKLLKKLLKK-NH2] | – | – | – | – | – | >500 mg/L | >500 mg/L | 125 mg/L | 31.3 mg/L | – | less than 5% | – |
| LLRRLLRRLLRRLLRR-NH2 [(LLRR)4, LLRRLLRRLLRRLLRR-NH2] | – | – | – | – | – | ~12 mg/L | >50 mg/L | >50 mg/L | 10 mg/L | – | around 50% | – |
| FFRRFFRRFFRR-NH2 [(FFRR)3, FFRRFFRRFFRR-NH2] | – | – | – | – | – | >500 mg/L | >500 mg/L | 125 mg/L | 31.3 mg/L | – | less than 5% | 12-24% |
| AARRAARRAARR-NH2 [(AARR)3, AARRAARRAARR-NH2] | – | – | – | – | – | >500 mg/L | >500 mg/L | >500 mg/L | >500 mg/L | – | – | – |
| LLRRLLRRLLRR-NH2 [(LLRR)3, LLRRLLRRLLRR-NH2] | – | – | – | – | – | >500 mg/L | >500 mg/L | 500 mg/L | 15.6 mg/L | – | less than 5% | 12-24% |
